We go through 27 compounds from ChEMBL document CHEMBL1136548, “1,3,4 Trisubstituted pyrrolidine CCR5 receptor antagonists bearing 4-aminoheterocycle substituted piperidine side chains” (Bioorg Med Chem Lett, 2003).

Data set [1] deals with T1, C-C chemokine receptor type 5 (Homo sapiens, UniProt P51681). As to the kind of experiment: Displacement inhibition of 125-I labeled MIP-alpha from CCR5 receptor expressed on CHO cell membranes.
Target sequence in this assay (P51681 whole entry): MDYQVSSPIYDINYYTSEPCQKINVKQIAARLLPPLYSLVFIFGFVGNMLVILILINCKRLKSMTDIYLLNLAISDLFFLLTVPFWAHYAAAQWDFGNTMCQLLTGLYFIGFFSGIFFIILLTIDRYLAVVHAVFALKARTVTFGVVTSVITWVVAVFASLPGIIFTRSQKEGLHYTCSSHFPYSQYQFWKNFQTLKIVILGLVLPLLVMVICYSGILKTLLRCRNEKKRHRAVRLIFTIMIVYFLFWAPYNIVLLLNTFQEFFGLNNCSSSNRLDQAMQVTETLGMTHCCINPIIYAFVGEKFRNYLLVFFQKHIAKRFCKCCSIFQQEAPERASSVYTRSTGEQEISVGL
A short description of data set [2]: Pharmacokinetic parameter expressed as plasma clearance in rat. The format is ADME, organism-based. Conditions: read-out: Clp; call rule not given here.
The nature of data set [3]: Maximum plasma concentration was evaluated in rat. Format: ADME, organism-based.
The nature of data set [4]: Bioavailability in rat. The format is ADME, organism-based. Conditions: in vivo.
Data set [5] in a line: Half life was evaluated in rat. The format is ADME, organism-based. As to conditions: in vivo.
Data set [6] addresses T1, C-C chemokine receptor type 5. The data set is described as follows: Compound tested for inhibiting the displacement of 125-I labeled MIP-alpha from CCR5 receptor expressed on CHO cell membranes at 1000 nM.
Target sequence in this assay (P51681 whole entry, looked up): as the sequence (P51681 whole entry) above
Data set [7] has the same target. The data set is described as follows: Inhibition over 48 hr of BAL strain HIV infection of HeLa Magi cells expressing CCR5. The format is functional, cell-based.
Target sequence in this assay (P51681 whole entry, looked up): as the sequence (P51681 whole entry) above
The nature of data set [8]: Tested for antiviral activity in peripheral blood mononuclear cells (PBMC). Format: functional.
The target in data set [9] is T1, C-C chemokine receptor type 5. The data set is described as follows: Inhibition over 48 hr of BAL strain HIV infection of HeLa Magi cells expressing CCR5; not active. The format is functional, cell-based.
Target sequence in this assay (P51681 whole entry): as above
Data set [10] shares this target. The data set is described as follows: Inhibition over 48 hr of BAL strain HIV infection of HeLa Magi cells expressing CCR5; Not active. Format: functional, cell-based.
Target sequence in this assay (P51681 whole entry): as above

On to `CCCN(c1ncc(F)cn1)C1CCN(C[C@H]2CN([C@H](CC3CCC3)C(=O)O)C[C@@H]2c2cccc(F)c2)CC1`, for which the IC50 in data set [1] turned out to be 0.4 nM.
Same read-out and setting: the result for `CCCN(c1ccccn1)C1CCN(C[C@H]2CN(C(=O)C3CCC3)C[C@@H]2c2ccccc2)CC1` reads 10 nM.
Take `CCCN(c1cncnc1)C1CCN(C[C@H]2CN([C@H](CC3CCC3)C(=O)O)C[C@@H]2c2cccc(F)c2)CC1`: the clearance in [2] was 81 mL/min/kg. Moreover, the concentration in data set [3] peaked (Cmax) at 28 nM. In addition, the bioavailability in [4] is 8%. In addition, the half-life in data set [5] is 0.3 h. In data set [1], this compound displayed a half-maximal inhibitory concentration (IC50) of 1.7 nM.
As to `C=CCN(c1ncccn1)C1CCN(C[C@H]2CN(C(=O)C3CCCCC3)C[C@@H]2c2ccccc2)CC1`, in data set [1], the IC50 was found to be 12 nM.
Consider `O=C(C1CCCCC1)N1C[C@H](CN2CCC(N(CC3CC3)c3ccccn3)CC2)[C@@H](c2ccccc2)C1`, for which the IC50 in data set [1] amounted to 9 nM. The IC50 values of the last two compounds are within 1.5-fold of each other.
Regarding `CCCN(c1ncccn1)C1CCN(C[C@H]2CN([C@@H](C(=O)O)C3CCCCC3)C[C@@H]2c2ccccc2)CC1`, the clearance in data set [2] is 17 mL/min/kg. The compound further registered a Cmax in [3] of 49 nM. Further, the bioavailability in data set [4] is 8%. Besides, in data set [1], the IC50 stood at 6.6 nM.
As for `O=C(C1CCCCC1)N1C[C@H](CN2CCC(N(Cc3ccccc3)c3ccccn3)CC2)[C@@H](c2ccccc2)C1`, the inhibition in [6] was 78%.
The compound `CCCN(c1ccccn1)C1CCN(C[C@H]2CN(C(=O)N3CCCC3)C[C@@H]2c2ccccc2)CC1` gave an IC50 in [1] of 9 nM.
For the compound `C=CCN(C(=O)OCc1ccc([N+](=O)[O-])cc1)C1CCN(C[C@H]2CN(C(=O)c3ccccc3Cl)C[C@@H]2c2ccccc2)CC1`, in data set [7], the 90% effect level (IC90) was put at 1 nM. Moreover, the 95% effect level in [8] (IC95) was put at 31 nM.
With `CCCN(c1ccccn1)C1CCN(C[C@H]2CN([C@@H](C(=O)O)C3CCCCC3)C[C@@H]2c2ccccc2)CC1`, the clearance in [2] was found to be 53 mL/min/kg. The compound also showed a Cmax in data set [3] of 53 nM. In addition, the bioavailability in data set [4] was determined as 20%. The compound further registered an IC50 in [1] of 3.9 nM.
Regarding `C=CCN(c1ccncc1)C1CCN(C[C@H]2CN(C(=O)C3CCCCC3)C[C@@H]2c2ccccc2)CC1`, the half-inhibitory concentration (IC50) in data set [1] was 66 nM; in data set [9], “Not Active”.
On to `C=CCN(c1ccccc1)C1CCN(C[C@H]2CN(C(=O)C3CCCCC3)C[C@@H]2c2ccccc2)CC1`, for which the IC50 was 42 nM in data set [1] and “Not Active” in [10].
On to `CCCN(c1ccncn1)C1CCN(C[C@H]2CN([C@H](CC3CCC3)C(=O)O)C[C@@H]2c2cccc(F)c2)CC1`, for which the clearance in [2] was 90 mL/min/kg. The half-life in [5] is 0.9 h. The IC50 in data set [1] turned out to be 1.2 nM.
`CCCN(c1nccc(C(F)(F)F)n1)C1CCN(C[C@H]2CN([C@H](CC3CCC3)C(=O)O)C[C@@H]2c2cccc(F)c2)CC1`: the clearance in [2] came to 13 mL/min/kg. Further, the highest concentration (Cmax) in [3] came to 177 nM. This compound also had a bioavailability in data set [4] of 25%. The half-life in data set [5] is 1.5 h. Besides, in data set [1], the concentration for half-maximal inhibition (IC50) came to 1.2 nM.
Regarding `C=CCN(c1ccc(C(F)(F)F)cn1)C1CCN(C[C@H]2CN(C(=O)C3CCCCC3)C[C@@H]2c2ccccc2)CC1`, the IC50 in data set [1] turned out to be 21 nM.
The same measure, in the same setting: under `C=CCN(c1cccnc1)C1CCN(C[C@H]2CN(C(=O)C3CCCCC3)C[C@@H]2c2ccccc2)CC1` stands 23 nM.
For the compound `CCN(c1ncccn1)C1CCN(C[C@H]2CN([C@H](CC3CCC3)C(=O)O)C[C@@H]2c2cccc(F)c2)CC1`, the clearance in data set [2] stood at 26 mL/min/kg. The Cmax in data set [3] came out at 210 nM. In addition, the bioavailability in data set [4] worked out at 33%. This compound had a half-life in data set [5] of 1.1 h. In addition, the IC50 in [1] is 1.5 nM.
The compound `C=CCN(c1ccccn1)C1CCN(C[C@H]2CN(C(=O)C3CCCCC3)C[C@@H]2c2ccccc2)CC1` showed a concentration for half-maximal inhibition (IC50) in data set [1] of 6 nM.
In data set [1], `CCCN(c1ccccn1)C1CCN(C[C@H]2CN(C(=O)c3ccccc3Cl)C[C@@H]2c2ccccc2)CC1` showed a half-inhibitory concentration (IC50) of 14 nM.
In data set [6], `CCCCCCN(c1ccccn1)C1CCN(C[C@H]2CN(C(=O)C3CCCCC3)C[C@@H]2c2ccccc2)CC1` displayed an inhibition of 64%.
On to `O=C(O)[C@@H](CC1CCC1)N1C[C@H](CN2CCC(N(CC3CC3)c3ncccn3)CC2)[C@@H](c2cccc(F)c2)C1`, for which the clearance in data set [2] is 28 mL/min/kg. The compound also showed a half-life in data set [5] of 0.7 h. The 50% inhibitory concentration (IC50) in [1] was 1.1 nM.
Regarding `CCCN(c1ncc(C(F)(F)F)cn1)C1CCN(C[C@H]2CN([C@H](CC3CCC3)C(=O)O)C[C@@H]2c2cccc(F)c2)CC1`, the clearance in data set [2] was 9 mL/min/kg. The Cmax in [3] worked out at 433 nM. The bioavailability in data set [4] turned out to be 72%. Also, the half-life in data set [5] was 2.8 h. In data set [1], this compound had a 50% inhibitory concentration (IC50) of 0.5 nM.
As to `CCCN(c1ncccn1)C1CCN(C[C@H]2CN([C@H](CC3CCC3)C(=O)O)C[C@@H]2c2cccc(F)c2)CC1`, the clearance in data set [2] amounted to 28 mL/min/kg. In [3], the highest level (Cmax) was 256 nM. Moreover, in [4], the bioavailability worked out at 29%. For the same compound, the half-life in [5] was 1.1 h. This compound returned an IC50 in data set [1] of 1.8 nM.
Consider `CCCN(c1ccccn1)C1CCN(C[C@H]2CN(C(=O)C3CCCCC3)C[C@@H]2c2ccccc2)CC1`, for which the concentration for half-maximal inhibition (IC50) in data set [1] came to 12 nM.
Turning to `CCCN(c1cccnc1)C1CCN(C[C@H]2CN([C@@H](C(=O)O)C3CCCCC3)C[C@@H]2c2ccccc2)CC1`, the clearance in data set [2] was found to be 106 mL/min/kg. The same compound gave a Cmax in data set [3] of 19 nM. The bioavailability in data set [4] was 8%. For the same compound, the IC50 in [1] is 5 nM.
`CCCN(c1nccc(OC)n1)C1CCN(C[C@H]2CN([C@H](CC3CCC3)C(=O)O)C[C@@H]2c2cccc(F)c2)CC1` yielded an IC50 in data set [1] of 0.8 nM.
For `CCCN(c1ncccn1)C1CCN(C[C@H]2CN([C@@H](C(=O)O)C3CCCCC3)C[C@@H]2c2cccc(F)c2)CC1`, the clearance in data set [2] turned out to be 13 mL/min/kg. Also, the peak concentration (Cmax) in [3] worked out at 140 nM. The compound further came in with a bioavailability in [4] of 20%. The compound further came in with an IC50 in data set [1] of 1.6 nM.
